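Test compounds were applied to cells in 96-well plates for 48 hours at 5 doses. TGI: concentration producing complete growth inhibition.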
Key:
Assay in all cases: NCI tumour cell line growth inhibition, 48 h
[1] = system: SK-MEL-28 melanoma
[2] = system: NCI/ADR-RES ovarian
[3] = system: RPMI-8226 leukemia
[4] = system: HCT-116 colon
[5] = system: HCC-2998 colon
[6] = system: DMS 114 small cell lung
[7] = system: A498 renal
[8] = system: SN12K1 renal
[9] = system: OVCAR-3 ovarian
[10] = system: IGROV1 ovarian
[11] = system: SK-OV-3 ovarian
[12] = system: UO-31 renal
[13] = system: SK-MEL-2 melanoma
[14] = system: CAKI-1 renal
[15] = system: KM12 colon
[16] = system: EKVX NSCLC
[17] = system: U251 CNS
[18] = system: NCI-H522 lung
[19] = system: RXF 393 renal
[20] = system: CCRF-CEM leukemia
[21] = system: SW-620 colon
[22] = system: NCI-H23 lung
[23] = system: MOLT-4 leukemia
[24] = system: HT29 colon
[25] = system: SNB-78 CNS
[26] = system: KM20L2 colon
[27] = system: P388 leukemia
[28] = system: HOP-92 NSCLC
[29] = system: SNB-75 CNS
[30] = system: UACC-62 melanoma
[31] = system: COLO 205 colon
[32] = system: P388/ADR leukemia
[33] = system: OVCAR-5 ovarian
[34] = system: SNB-19 CNS
[35] = system: NCI-H226 lung
[36] = system: SF-539 CNS
[37] = system: A549 NSCLC
[38] = system: SK-MEL-5 melanoma
[39] = system: HCT-15 colon
[40] = system: UACC-257 melanoma
[41] = system: MCF7 breast
[42] = system: HOP-18 NSCLC
[43] = system: LOX IMVI melanoma
[44] = system: HL-60(TB) leukemia
[45] = system: MALME-3M melanoma
[46] = system: OVCAR-4 ovarian
[47] = system: OVCAR-8 ovarian
[48] = system: SF-295 CNS
[49] = system: SF-268 CNS
[50] = system: DMS 273 small cell lung
[51] = system: NCI-H460 lung
[52] = system: SN12C renal
[53] = system: K-562 leukemia
[54] = system: DLD-1 colon
[55] = system: M19-MEL melanoma
[56] = system: ACHN renal
[57] = system: M14 melanoma
[58] = system: TK-10 renal
[59] = system: RXF-631 renal
[60] = system: LXFL 529 NSCLC
[61] = system: 786-0 renal
[62] = system: HOP-62 NSCLC
[63] = system: XF 498 CNS

SMILES: CC(C)=CCc1c(O)ccc2ccc(=O)oc12
- TGI [1]: > 100 µM
- TGI [2]: > 31.6 µM
- TGI [3]: > 100 µM
- TGI [4]: > 100 µM
- TGI [5]: > 100 µM
- TGI [6]: 93.6 µM
- TGI [7]: > 100 µM
- TGI [8]: > 100 µM
- TGI [9]: > 100 µM
- TGI [10]: > 100 µM
- TGI [11]: > 100 µM
- TGI [12]: > 95.1 µM
- TGI [13]: > 100 µM
- TGI [14]: > 100 µM
- TGI [15]: > 100 µM
- TGI [16]: > 100 µM
- TGI [17]: > 100 µM
- TGI [18]: > 100 µM
- TGI [19]: > 100 µM
- TGI [20]: > 100 µM
- TGI [21]: > 100 µM
- TGI [22]: > 100 µM
- TGI [23]: 84.2 µM
- TGI [24]: > 100 µM
- TGI [25]: > 100 µM
- TGI [26]: > 100 µM
- TGI [27]: > 100 µM
- TGI [28]: 94.6 µM
- TGI [29]: > 100 µM
- TGI [30]: > 100 µM
- TGI [31]: > 100 µM
- TGI [32]: > 100 µM
- TGI [33]: > 31.6 µM
- TGI [34]: > 100 µM
- TGI [35]: > 100 µM
- TGI [36]: > 31.6 µM
- TGI [37]: > 100 µM
- TGI [38]: 23.5 µM
- TGI [39]: > 100 µM
- TGI [40]: 84 µM
- TGI [41]: > 100 µM
- TGI [42]: > 100 µM
- TGI [43]: > 100 µM
- TGI [44]: > 80.6 µM
- TGI [45]: > 100 µM
- TGI [46]: > 100 µM
- TGI [47]: > 100 µM
- TGI [48]: > 100 µM
- TGI [49]: > 100 µM
- TGI [50]: > 100 µM
- TGI [51]: > 100 µM
- TGI [52]: > 100 µM
- TGI [53]: > 100 µM
- TGI [54]: > 100 µM
- TGI [55]: > 100 µM

SMILES: CCOC(=O)C1(c2ccccc2)CCC(=O)CC1
- TGI [1]: > 100 µM
- TGI [4]: > 100 µM
- TGI [5]: > 100 µM
- TGI [6]: > 100 µM
- TGI [7]: > 100 µM
- TGI [9]: > 100 µM
- TGI [10]: > 100 µM
- TGI [56]: > 100 µM
- TGI [11]: > 100 µM
- TGI [12]: > 100 µM
- TGI [13]: > 100 µM
- TGI [14]: > 100 µM
- TGI [15]: > 100 µM
- TGI [57]: > 100 µM
- TGI [16]: > 100 µM
- TGI [17]: > 100 µM
- TGI [18]: > 100 µM
- TGI [19]: > 100 µM
- TGI [20]: > 100 µM
- TGI [21]: > 100 µM
- TGI [22]: > 100 µM
- TGI [23]: > 100 µM
- TGI [58]: > 100 µM
- TGI [24]: > 100 µM
- TGI [25]: > 100 µM
- TGI [59]: > 100 µM
- TGI [26]: > 100 µM
- TGI [60]: > 100 µM
- TGI [28]: > 100 µM
- TGI [29]: > 100 µM
- TGI [30]: > 100 µM
- TGI [31]: > 100 µM
- TGI [33]: > 100 µM
- TGI [34]: > 100 µM
- TGI [35]: > 100 µM
- TGI [37]: > 100 µM
- TGI [38]: > 100 µM
- TGI [39]: > 100 µM
- TGI [40]: > 100 µM
- TGI [42]: > 100 µM
- TGI [61]: > 100 µM
- TGI [43]: > 100 µM
- TGI [44]: > 100 µM
- TGI [45]: > 100 µM
- TGI [46]: > 100 µM
- TGI [47]: > 100 µM
- TGI [48]: > 100 µM
- TGI [49]: > 100 µM
- TGI [50]: > 100 µM
- TGI [51]: > 100 µM
- TGI [52]: > 100 µM
- TGI [53]: > 100 µM
- TGI [54]: > 100 µM
- TGI [62]: > 100 µM
- TGI [55]: > 100 µM

SMILES: CCc1c(OC(C)=O)c2c(NC3OC(COC(C)=O)C(OC(C)=O)C(OC(C)=O)C3OC(C)=O)nc(OC)nc2oc1=O (stereo not drawn)
- TGI [3]: > 100 µM
- TGI [4]: > 100 µM
- TGI [5]: > 100 µM
- TGI [6]: > 100 µM
- TGI [7]: > 100 µM
- TGI [9]: > 100 µM
- TGI [10]: > 100 µM
- TGI [56]: > 100 µM
- TGI [11]: > 100 µM
- TGI [12]: > 100 µM
- TGI [13]: > 100 µM
- TGI [14]: > 100 µM
- TGI [15]: > 100 µM
- TGI [57]: > 100 µM
- TGI [63]: > 100 µM
- TGI [16]: > 100 µM
- TGI [17]: > 100 µM
- TGI [19]: > 100 µM
- TGI [20]: > 100 µM
- TGI [21]: > 100 µM
- TGI [22]: > 100 µM
- TGI [23]: > 100 µM
- TGI [58]: > 100 µM
- TGI [24]: > 100 µM
- TGI [25]: > 100 µM
- TGI [26]: > 100 µM
- TGI [60]: > 100 µM
- TGI [29]: > 100 µM
- TGI [30]: > 100 µM
- TGI [31]: > 100 µM
- TGI [33]: > 100 µM
- TGI [34]: > 100 µM
- TGI [35]: > 100 µM
- TGI [36]: > 100 µM
- TGI [37]: > 100 µM
- TGI [38]: > 100 µM
- TGI [39]: > 100 µM
- TGI [40]: > 100 µM
- TGI [42]: > 100 µM
- TGI [61]: > 100 µM
- TGI [43]: > 100 µM
- TGI [44]: > 100 µM
- TGI [45]: > 100 µM
- TGI [46]: > 100 µM
- TGI [47]: > 100 µM
- TGI [48]: > 100 µM
- TGI [50]: > 100 µM
- TGI [51]: > 100 µM
- TGI [52]: > 100 µM
- TGI [53]: > 100 µM
- TGI [54]: > 100 µM
- TGI [62]: > 100 µM
- TGI [55]: > 100 µM
